Assay results reported in publication PMC2784894 (Chemistry & biology, 2009).

Assays:
[1] = system: fission yeast actin cytoskeleton; test: fission yeast actin cytoskeleton imaging
NIH 3T3 fibroblasts [2] = test: time-lapse imaging of migration, morphology and protrusion phenotypes
Cdc12 = biological target: T1, Cdc12 (Schizosaccharomyces pombe, UniProt Q10059); test: formin nucleation: filament length of products of spontaneous assembly reactions; settings: with SMIFH2; ~0.5 μm with Cdc12 alone, ~21 μm without formin
T1 sequence (Q10059 882-1390 limits assumed): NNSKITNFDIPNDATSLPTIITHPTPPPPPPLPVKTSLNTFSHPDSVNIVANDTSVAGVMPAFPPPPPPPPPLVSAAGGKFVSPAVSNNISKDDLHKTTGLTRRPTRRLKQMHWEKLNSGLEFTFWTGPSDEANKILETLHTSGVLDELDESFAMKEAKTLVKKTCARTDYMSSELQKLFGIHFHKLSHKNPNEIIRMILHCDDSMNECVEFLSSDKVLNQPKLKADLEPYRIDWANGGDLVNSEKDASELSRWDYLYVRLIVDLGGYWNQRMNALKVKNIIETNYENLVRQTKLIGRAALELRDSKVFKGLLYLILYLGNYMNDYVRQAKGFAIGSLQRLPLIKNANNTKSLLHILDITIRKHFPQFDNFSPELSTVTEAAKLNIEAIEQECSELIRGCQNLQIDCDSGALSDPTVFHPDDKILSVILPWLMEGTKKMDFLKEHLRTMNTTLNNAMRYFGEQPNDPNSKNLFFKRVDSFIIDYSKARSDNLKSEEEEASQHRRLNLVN

NIH 3T3 fibroblasts [3] = test: immunofluorescence of filamentous actin and paxillin
mDia1(FH1FH2) [4] = biological target: T2, mDia1(FH1FH2) (Mus musculus, UniProt O08808); test: pyrene-actin polymerization stimulated by mDia1; settings: saturating concentrations of SMIFH2
[5] = system: Cdc12- and mDia2-associated filaments; test: elongation of filaments pre-assembled by formin
mDia1(FH1FH2) [6] = biological target: T2, mDia1(FH1FH2); test: TIRF microscopy of filaments assembled from formin in solution
A549 cells [7] = test: cell viability; format: cell-based, human; settings: read-out: IC50 (cell viability)
actin = actin (Homo sapiens, UniProt P68133); test: control actin assays without formin
A549 cells [8] = test: multi-nucleated cells and time-lapse protrusion phenotypes
NIH 3T3 fibroblasts [9] = test: cytokinesis defect: percentage of multi-nucleated cells; format: cell-based; settings: 2.5 μM SMIFH2, after 4 days; DMSO control 1.1 ± 0 .7%
NIH 3T3 fibroblasts [10] = test: cell viability; format: cell-based; settings: within a period of 96 hours
mDia2 = mDia2 (Mus musculus, UniProt Q9Z207); test: formin nucleation: filament length of products of spontaneous assembly reactions; settings: with SMIFH2; ~1.5 μm with mDia2 alone, ~21 μm without formin
GST-mDia1(FH1FH2) = GST-mDia1(FH1FH2) (Mus musculus, UniProt O08808); test: TIRF microscopy of filaments assembled from formin immobilized on beads; settings: for filaments per bead after washing out SMIFH2: 75 μM SMIFH2
GST-mDia1(FH1FH2), sequence (O08808 552-1255 limits assumed): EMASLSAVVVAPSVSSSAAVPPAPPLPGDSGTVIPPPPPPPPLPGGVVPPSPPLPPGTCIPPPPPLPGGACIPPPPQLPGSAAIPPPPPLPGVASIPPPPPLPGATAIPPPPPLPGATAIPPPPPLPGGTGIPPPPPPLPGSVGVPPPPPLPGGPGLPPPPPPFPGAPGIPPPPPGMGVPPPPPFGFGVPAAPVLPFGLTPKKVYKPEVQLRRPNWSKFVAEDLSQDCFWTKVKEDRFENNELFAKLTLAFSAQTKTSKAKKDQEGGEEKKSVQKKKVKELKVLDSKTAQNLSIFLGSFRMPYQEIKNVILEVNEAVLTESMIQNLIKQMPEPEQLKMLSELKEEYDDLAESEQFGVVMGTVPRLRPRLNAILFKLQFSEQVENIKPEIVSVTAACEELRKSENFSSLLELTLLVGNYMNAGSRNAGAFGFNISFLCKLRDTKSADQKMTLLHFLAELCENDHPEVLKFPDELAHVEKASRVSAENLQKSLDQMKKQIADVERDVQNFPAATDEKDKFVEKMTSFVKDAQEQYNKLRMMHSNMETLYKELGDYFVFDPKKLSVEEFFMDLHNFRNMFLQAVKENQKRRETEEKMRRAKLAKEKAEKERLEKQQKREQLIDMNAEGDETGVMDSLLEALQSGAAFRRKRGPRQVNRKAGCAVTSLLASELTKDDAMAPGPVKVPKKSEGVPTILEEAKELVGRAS

T2 sequence (O08808 552-1255 limits assumed): as above
mDia2, sequence (Q9Z207 521-1171 limits assumed): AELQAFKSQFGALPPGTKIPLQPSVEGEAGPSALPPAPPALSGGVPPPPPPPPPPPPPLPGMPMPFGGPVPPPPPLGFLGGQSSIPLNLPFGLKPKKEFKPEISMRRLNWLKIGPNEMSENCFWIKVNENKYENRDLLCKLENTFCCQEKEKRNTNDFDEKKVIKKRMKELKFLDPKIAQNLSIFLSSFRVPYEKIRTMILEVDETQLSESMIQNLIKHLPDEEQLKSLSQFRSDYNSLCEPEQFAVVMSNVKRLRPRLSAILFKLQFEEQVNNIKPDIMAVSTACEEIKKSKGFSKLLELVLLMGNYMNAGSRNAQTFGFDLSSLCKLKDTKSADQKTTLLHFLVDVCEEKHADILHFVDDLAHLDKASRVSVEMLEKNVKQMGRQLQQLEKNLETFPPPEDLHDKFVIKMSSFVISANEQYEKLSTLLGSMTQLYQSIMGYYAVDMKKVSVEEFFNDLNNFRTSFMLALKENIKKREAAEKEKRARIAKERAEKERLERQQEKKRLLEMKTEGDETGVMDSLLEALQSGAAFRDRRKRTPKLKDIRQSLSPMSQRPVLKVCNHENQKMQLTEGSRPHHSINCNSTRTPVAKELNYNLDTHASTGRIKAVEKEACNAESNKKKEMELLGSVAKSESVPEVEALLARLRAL

## C/C1=C/C(=O)O[C@@H]2C[C@@H](CC[C@H](C)/C=C\C=C\CC1)O[C@@](O)([C@@H]1CSC(=O)N1)C2 [LatA, Latrunculin A, reference compound]
[1]; 25 μM, 30 minutes at 25° C
  effect on filamentous actin structures (GFP-CHD): completely disassembled all filamentous actin structures

## O=C1NC(=S)N(c2cccc(Br)c2)C(=O)/C1=C/c1ccco1 [SMIFH2]
NIH 3T3 fibroblasts [2]; 10 μM SMIFH2, after two hours
  cells protruding by means of small dynamic blebs: 40%
  cells retaining the lamellipodial protrusive phenotype: 60%
NIH 3T3 fibroblasts [2]; 10 μM SMIFH2 for >2 hrs, compared to control cells
  migration rate: reduced two-fold
NIH 3T3 fibroblasts [2]; 30 μM SMIFH2
  cells exhibiting large blebs: nearly all
NIH 3T3 fibroblasts [2]; 10–20 μM SMIFH2 for six hours
  cells with constitutive, dynamic, small blebs: 20%
NIH 3T3 fibroblasts [2]; data not shown
  time scale of reversibility of SMIFH2 perfusion effects: 5 to 10 min
NIH 3T3 fibroblasts [2]; less than 20 μM SMIFH2 for six hours, over 90% of control cells
  cells that extended lamellipodial protrusions: approximately 20%
Cdc12
  filament length: ~ 21 μm
NIH 3T3 fibroblasts [3]; 10 μM SMIFH2 for 2 hours
  spread cells with no F-actin bundles: approximately 5%
NIH 3T3 fibroblasts [3]; 10 μM SMIFH2 for 2 hours, 20% in control
  cells with thin F-actin bundles: 60%
NIH 3T3 fibroblasts [3]; 10 μM SMIFH2 for 2 hours, over 80% in control
  cells with thick F-actin bundles: 20%
NIH 3T3 fibroblasts [3]; 20 μM SMIFH2, 2 hr
  cells that lacked F-actin bundles: 50%
mDia1(FH1FH2) [4]
  rate of assembly at saturating concentrations: identical to the rate without formin
[5]
  elongation of formin-associated filaments: severely blocked
mDia1(FH1FH2) [6]; 100 μM SMIFH2
  control filaments not associated with formin: unaffected
mDia1(FH1FH2) [6]; 100 μM SMIFH2, 2.5 μM profilin
  barbed end elongation rate of formin-associated filaments: ~ 60 sub/s
mDia1(FH1FH2) [6]; 100 μM SMIFH2, just over 80% without SMIFH2
  dim formin-associated filaments, percent of the total filament population: ~ 10%
mDia1(FH1FH2) [6]; read-out: half-maximal inhibition of the percent of formin-nucleated filaments
  IC50: ~25 µM
A549 cells [7]
  IC50: ~75 µM
[1]; 10 μM SMIFH2
  appearance of Rlc1-GFP and Myo2-GFP at the division site: punctate spots
  localization of type V myosin Myo52-GFP: distributed throughout the cell
[1]; 10 μM, 30 minutes
  ability to disrupt the fission yeast formin-dependent actin cytoskeleton (actin cables): lost actin cables
[1]; 30 minutes at 25° C
  concentration at which actin cables were lost: 2.5 µM
  concentration required for disassembly of contractile rings: 25 µM
actin
  barbed end depolymerization rate without formin: no effect
actin; high concentrations of SMIFH2
  spontaneous assembly of actin monomers without formin: did not eliminate
A549 cells [8]; 30 μM SMIFH2, 8 hr time-lapse
  cells with protrusions stabilized by adhesion to the external matrix: 10%
  cells with spherical bleb-like protrusions: ~ 40%
A549 cells [8]; 30 μM SMIFH2 for four days
  increase in the percentage of multi-nucleated cells: four-fold
NIH 3T3 fibroblasts [9]
  cells with multiple nuclei: 8.6 ± 2%
NIH 3T3 fibroblasts [10]
  growth of NIH 3T3 fibroblasts: dose-dependent growth inhibition
mDia2
  filament length: ~ 18 μm
GST-mDia1(FH1FH2); 100 μM SMIFH2, 7.5 μM profilin
  elongation rate of filaments from beads: ~ 44 sub/s
GST-mDia1(FH1FH2); beads washed five minutes before addition of actin monomers
  filaments per bead after washing out SMIFH2: ~ 1.25 filaments per bead
GST-mDia1(FH1FH2); beads washed one minute before addition of actin monomers
  filaments per bead after washing out SMIFH2: ~ 0.5 filaments per bead
